The results in this text go back to patent US10227347B2, “Purinyl-N-hydroxyl pyrimidine formamide derivative, preparation methods and uses thereof” (Guizhou Bailing Group Pharmaceutical CO., LTD., priority 2015, dated 2019).

Usually IC50 stands for the concentration needed to halve the response being measured.

For one data set, the target named is T1, mTOR (Homo sapiens, UniProt P42345).
T1 construct: purchased Millipore 14-770
As to the kind of experiment: mTOR activity inhibition (ULight-4E-BP1 peptide). In kind it is biochemical. The conditions noted are these: Table 1, graded. As for the experimental part:
mTOR protein is purchased from Millipore Company (Catalog No.: 14-770). The reaction buffer system comprises 50 mM HEPES, 10 mM MgCl2, 1 mM EGTA, 3 mM […], 0.01% Tween-20 (purchased from Chengdu Kelong Chemical Regent Factory) and 2 mM DTT. The pH value of the reaction buffer is 7.5. Preparing 10 μL reaction system in corresponding wells of the 384 well plate, which contains the compositions as: the compound with designed concentration (or blank control), mTOR protein (with the concentration of 2.5 nM), ULight-4E-BP1 (containing the 37th and the 46th threonine residues, Thr37/46) peptide (purchased from PE Company, Catalog No.: TRF0128-M) and ATP substrates (ULight-4E-BP1 peptide, with the concentration of 50 nM and ATP, with the concentration of […]). Mixing it evenly for incubation under ambient temperature for 1 h; adding 10 μL testing liquid containing EDTA (ethylenediaminetetraacetic acid) and Eu-anti-phosphorylation-4E-BP1 (Thr37/46) antibody (purchased from PE Company, Catalog No.: TRF0216-M) into the reaction wells (after the testing liquid is added, the concentration of EDTA is 8 mM and the concentration of Eu-phosphorylation-4E-BP1 antibody is 2 nM); mixing it evenly and incubating it for 1 h under ambient temperature, then measuring the fluorescence intensity with a microplate reader and analyzing the result data with the software GraphPad Prism.
Calculating the value of IC50 as per the formula: Y=background data+(top data−background data)/(1+10^((Log IC50−X)*rate of curve))
Where, Y refers to the inhibition ratio (%) and X refers to the compound concentration.

For data set [1], the system named is human breast cancer MDA-MB-231 subcutaneous tumor. As to the kind of experiment: Subcutaneous tumor model, human breast cancer MDA-MB-231. The following applies: once per 2 days. As to the method: (§1) Cell MM1S is cultured in RPMI1640 medium (HyClone) which contains 10% fetal calf serum (Hohhot Caoyuan Lvye Bioengineering Material Co., Ltd.) and 100 U/mL penicillin and streptomycin (Beyotime).
(§2) 3) Inoculation, grouping and treatment: collecting cells in logarithmic phase under aseptic conditions and counting; diluting the single cell suspension with the medium containing neither fetal calf serum nor antibiotics to 1×10^7-8 cell/mL for standby. Mixing the cell suspension; injecting 100 μL of cell suspension (5×10^6-2×10^7 cells) subcutaneously with a 1 mL injector on the right side of the back of animals. Weeding out the animals with oversized and undersized tumor when the tumor grows to an average volume of about 120 mm^3 and grouping the qualified animals for treatment and drug administration. Refer to Table 7 for each grouping model and drug administration frequency. Measuring the weight of each model per 2 days and measuring the length and width of the tumor with a vernier caliper; killing the tested animals through cervical dislocation and peeling off their tumors for weight measuring and photographing. Then calculating the tumor inhibition ratio (%) and evaluating the inhibition intensity to tumor with such tumor inhibition ratio.

Data set [2] relates to human multiple myeloma MM1S subcutaneous tumor. As to the kind of experiment: Subcutaneous tumor model, human multiple myeloma MM1S. The following applies: once per 2 days. As to the method: as §1, §2
In data set [3] the test system is human colon cancer hct116 subcutaneous tumor. As to the kind of experiment: Subcutaneous tumor model, human colon cancer hct116. The following applies: once per 2 days, intravenous.
Data set [4] has as its system human breast cancer MCF-7 subcutaneous tumor. As to the kind of experiment: Subcutaneous tumor model, human breast cancer MCF-7. The following applies: once per 2 days.
The test system of data set [5] is human B-cell lymphoma Raji subcutaneous tumor. As to the kind of experiment: Subcutaneous tumor model, human B-cell lymphoma Raji. The following applies: once per 2 days, intraperitoneal.

T1 sequence (P42345 1362-2549 limits assumed): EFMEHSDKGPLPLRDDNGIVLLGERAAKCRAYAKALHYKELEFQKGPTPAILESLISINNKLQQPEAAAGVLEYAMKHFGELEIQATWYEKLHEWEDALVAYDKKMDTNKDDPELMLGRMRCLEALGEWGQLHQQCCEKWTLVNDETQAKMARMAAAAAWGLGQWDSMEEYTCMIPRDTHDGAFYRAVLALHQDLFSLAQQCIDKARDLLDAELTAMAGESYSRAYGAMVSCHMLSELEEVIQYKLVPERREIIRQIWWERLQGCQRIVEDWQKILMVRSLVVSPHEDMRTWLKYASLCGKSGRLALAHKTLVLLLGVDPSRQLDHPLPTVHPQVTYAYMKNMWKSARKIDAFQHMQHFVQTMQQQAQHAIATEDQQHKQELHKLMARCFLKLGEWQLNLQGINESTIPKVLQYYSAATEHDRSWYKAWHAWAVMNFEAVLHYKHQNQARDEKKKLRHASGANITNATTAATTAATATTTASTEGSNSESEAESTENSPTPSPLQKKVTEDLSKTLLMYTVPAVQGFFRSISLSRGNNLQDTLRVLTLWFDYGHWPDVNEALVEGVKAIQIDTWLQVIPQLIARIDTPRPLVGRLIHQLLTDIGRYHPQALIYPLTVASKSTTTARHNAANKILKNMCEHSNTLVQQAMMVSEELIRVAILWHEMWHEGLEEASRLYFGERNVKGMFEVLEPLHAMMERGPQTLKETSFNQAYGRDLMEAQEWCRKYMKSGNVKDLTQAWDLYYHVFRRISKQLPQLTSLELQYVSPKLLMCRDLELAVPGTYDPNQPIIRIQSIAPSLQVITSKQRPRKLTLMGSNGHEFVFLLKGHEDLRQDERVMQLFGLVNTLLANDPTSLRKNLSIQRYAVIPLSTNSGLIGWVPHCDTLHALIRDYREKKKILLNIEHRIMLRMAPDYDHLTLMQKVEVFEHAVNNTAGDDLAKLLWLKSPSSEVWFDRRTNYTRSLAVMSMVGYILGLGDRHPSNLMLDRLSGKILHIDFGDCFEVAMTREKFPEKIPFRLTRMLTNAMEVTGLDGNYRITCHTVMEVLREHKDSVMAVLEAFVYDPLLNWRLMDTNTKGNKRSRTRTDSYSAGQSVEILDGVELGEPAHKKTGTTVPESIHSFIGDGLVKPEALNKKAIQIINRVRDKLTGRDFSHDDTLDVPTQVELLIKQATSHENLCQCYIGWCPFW

The compound `COc1ccc(-c2nc(N3CCOCC3)c3nc(CN(C)c4ncc(C(=O)NO)cn4)n(C)c3n2)cn1` [CLJ-1, 2-(((2-(6-methoxypyridine-3-yl)-9-methyl-6-morpholine-9H-purine-8-yl))methyl(methyl)amino)-N-hydroxyl pyrimidine-5-formamide] came in with an IC50 on mTOR of 1 to 10 µM.

In the case of `CN(Cc1nc2c(N3CCOCC3)nc(-c3cnc(N)nc3)nc2n1C)c1ncc(C(=O)NO)cn1` [CLJ-11, 2-(((2-(2-aminopyrimidine-5-yl)-9-methyl-6-morpholine-9H-purine-8-yl))methyl(methyl)amino)-N-hydroxyl pyrimidine-5-formamide], on mTOR, the half-maximal inhibitory concentration (IC50) fell in the range of 0.1 to 1 µM.

For `CN(Cc1nc2c(N3CCOCC3)nc(-c3ccc(N)cc3)nc2n1C)c1ncc(C(=O)NO)cn1` [CLJ-44], the Death is recorded as 0/6 in data set [1] (2.5 mg/kg, intravenous); 0/6 in data set [1] (5 mg/kg, intravenous); 0/6 in data set [1] (10 mg/kg, intravenous); 0/7 in data set [2] (2.5 mg/kg, intravenous); 0/7 in data set [2] (5 mg/kg, intravenous); 0/7 in data set [2] (10 mg/kg, intravenous). The Death is listed as 0/6 in data set [3] (2.5 mg/kg); 0/6 in data set [3] (5 mg/kg); 0/6 in data set [3] (10 mg/kg); 0/6 in data set [4] (2.5 mg/kg, intravenous); 0/6 in data set [4] (5 mg/kg, intravenous); 0/6 in data set [4] (10 mg/kg, intravenous). For the same compound, the Death in data set [5] (5 mg/kg), in data set [5] (10 mg/kg) and in data set [5] (20 mg/kg) was 0/6 in each case. In addition, the “Inhibitory rate (%)” value was found to be 72.1% in data set [1] (2.5 mg/kg, intravenous); 83.9% in data set [1] (5 mg/kg, intravenous); 86.9% in data set [1] (10 mg/kg, intravenous); 45.09% in data set [2] (2.5 mg/kg, intravenous); 69.65% in data set [2] (5 mg/kg, intravenous); 71.94% in data set [2] (10 mg/kg, intravenous). In addition, the “Inhibitory rate (%)” value in data set [3] (2.5 mg/kg) is 49.4%; in data set [3] (5 mg/kg), 53.3%; in data set [3] (10 mg/kg), 68.2%; in data set [4] (2.5 mg/kg, intravenous), 69.58%; in data set [4] (5 mg/kg, intravenous) it was 77.58%; in data set [4] (10 mg/kg, intravenous) it was 82.24%. Moreover, the “Inhibitory rate (%)” value in data set [5] (5 mg/kg) was determined as 76.96%; in data set [5] (10 mg/kg) it was 97.34%; in data set [5] (20 mg/kg), 99.29%.

On to `Cc1[nH]c2ccccc2c1CCNCc1ccc(/C=C/C(=O)NO)cc1` [LBH589, panobinostat, reference compound], for which the Death in data set [1] (10 mg/kg, intraperitoneal) is reported as 0/6; in data set [2] (10 mg/kg, intraperitoneal) it was 0/7; in data set [4] (10 mg/kg, intraperitoneal), 0/6; in data set [5] (10 mg/kg), 0/6. Also, the “Inhibitory rate (%)” value in data set [1] (10 mg/kg, intraperitoneal) was 77.95%; in data set [2] (10 mg/kg, intraperitoneal), 47.33%; in data set [4] (10 mg/kg, intraperitoneal), 75.69%; in data set [5] (10 mg/kg) it was 54.93%.
